# Reference: PubChem BioAssay AID330 (DTP/NCI, 2004)
# Where “and” joins values, the source holds several entries; their conditions need not be identical. Equal values may be shown once. Inconclusive results and toxic doses are left out.
# Tested on: P388 leukemia ip, CD2F1 mice, survival T/C
# Assay: NCI In Vivo Anticancer Drug Screen. Data for tumor model P388 Leukemia (intraperitoneal) in CD2F1 (CDF1) mice
# Conditions: endpoint: median survival time, higher = longer survival
# In short: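 Mice carrying the transplanted tumor received test compound or vehicle. Survival was recorded in each group, and the value is the treated-group measurement divided by that of the vehicle-treated control group.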
# [1] = dose: 50.0 mg/kg/injection, schedule: Q01DX009 (ip), vehicle: saline
# [2] = dose: 100.0 mg/kg/injection, schedule: Q01DX009 (ip), vehicle: saline
# [3] = dose: 200.0 mg/kg/injection, schedule: Q01DX009 (ip), vehicle: saline
# [4] = dose: 400.0 mg/kg/injection, schedule: Q01DX009 (ip), vehicle: saline
# [5] = dose: 60.0 mg/kg/injection, schedule: Q01DX005 (ip), vehicle: saline with Tween-80
# [6] = dose: 120.0 mg/kg/injection, schedule: Q01DX005 (ip), vehicle: saline with Tween-80
# [7] = dose: 240.0 mg/kg/injection, schedule: Q01DX005 (ip), vehicle: saline with Tween-80
# [8] = dose: 50.0 mg/kg/injection, schedule: Q01DX005 (ip), vehicle: saline with Tween-80
# [9] = dose: 100.0 mg/kg/injection, schedule: Q01DX005 (ip), vehicle: saline with Tween-80
# [10] = dose: 200.0 mg/kg/injection, schedule: Q01DX005 (ip), vehicle: saline with Tween-80
# [11] = dose: 100.0 mg/kg/injection, schedule: Q04DX003 (ip), vehicle: saline
# [12] = dose: 200.0 mg/kg/injection, schedule: Q04DX003 (ip), vehicle: saline
# [13] = dose: 50.0 mg/kg/injection, schedule: Q01DX005 (ip), vehicle: Klucel (hydroxypropylcellulose) (HPC)
# [14] = dose: 100.0 mg/kg/injection, schedule: Q01DX005 (ip), vehicle: Klucel (hydroxypropylcellulose) (HPC)
smiles,measurement,setting,value
COC(=O)[C@@H]1[C@H](O)[C@H](C)[C@H](O)[C@H](C)/C=C\C=C(C)C(=O)Nc2c(C)c(OC(C)=O)c3c(c2O)C(=O)C(C)=C2OCOC(=C23)C(C)=C[C@@](C)(O)[C@H](O)[C@@H](C)[C@H]1OC(C)=O,T/C,[1],96 % of control
same,T/C,[2],109 % of control and 96 % of control
same,T/C,[3],99 % of control and 122 % of control
same,T/C,[4],100 % of control
COC(=O)c1ncn(C2CCCCC2)c1N,T/C,"dose: 6.25 mg/kg/injection, schedule: Q01DX005 (ip), vehicle: saline with Tween-80",99 % of control
same,T/C,"dose: 12.5 mg/kg/injection, schedule: Q01DX005 (ip), vehicle: saline with Tween-80",101 % of control
Clc1cc(Cl)c(CBr)cc1CBr,T/C,"dose: 3.0 mg/kg/injection, schedule: Q04DX003 (ip), vehicle: saline with Tween-80",104 % of control
same,T/C,"dose: 6.0 mg/kg/injection, schedule: Q04DX003 (ip), vehicle: saline with Tween-80",104 % of control
same,T/C,"dose: 12.0 mg/kg/injection, schedule: Q04DX003 (ip), vehicle: saline with Tween-80",100 % of control
CC(C)CC(=O)CC(=O)CCC(=O)Nc1ccc(Cl)cc1Cl,T/C,[5],100 % of control
same,T/C,[6],108 % of control
same,T/C,[7],100 % of control
Cc1c2cccc1CSCc1cccc(c1C)CSC2,T/C,"dose: 50.0 mg/kg/injection, schedule: Q01DX009 (ip), vehicle: suspension in saline",99 % of control
same,T/C,"dose: 100.0 mg/kg/injection, schedule: Q01DX009 (ip), vehicle: suspension in saline",92 % of control
same,T/C,"dose: 200.0 mg/kg/injection, schedule: Q01DX009 (ip), vehicle: suspension in saline",100 % of control
CC(=O)/C(=C\c1ccccc1)C(=O)CCN(C)C,T/C,"dose: 25.0 mg/kg/injection, schedule: Q01DX005 (ip), vehicle: saline with Tween-80",100 % of control
same,T/C,[8],103 % of control
CN(C)C(=O)Oc1c(Cc2ccccc2)c(=O)n2c([nH]c3ccccc32)c1C#N,T/C,[5],89 % of control
same,T/C,[6],92 % of control
O=c1[nH]c(Cl)nc2n[nH]c(Br)c12,T/C,"dose: 100.0 mg/kg/injection, schedule: Q01DX001 (ip), vehicle: saline with Tween-80",98 % of control
same,T/C,"dose: 200.0 mg/kg/injection, schedule: Q01DX001 (ip), vehicle: saline with Tween-80",103 % of control
COC(=O)C1=COC(C)C2CN3CCc4c([nH]c5cc(OC)c(OC)cc45)C3CC12 (stereo unspecified),T/C,[8],101 % of control
same,T/C,[9],102 % of control
same,T/C,[10],115 % of control
COC(=O)C(C(=O)OC)=S1C=CC=C1,T/C,[11],106 % of control
same,T/C,[12],100 % of control
same,T/C,"dose: 400.0 mg/kg/injection, schedule: Q04DX003 (ip), vehicle: saline",106 % of control
O=C(N/N=C/c1ccco1)C(=O)Nc1ccc(Cl)c([N+](=O)[O-])c1,T/C,[8],91 % of control
same,T/C,[9],89 % of control
same,T/C,[10],105 % of control
O=C(NP1(=O)NCc2ccccc2CN1)OC1CCCCC1,T/C,"dose: 6.25 mg/kg/injection, schedule: Q01DX005 (ip), vehicle: Klucel (hydroxypropylcellulose) (HPC)",94 % of control
same,T/C,"dose: 12.5 mg/kg/injection, schedule: Q01DX005 (ip), vehicle: Klucel (hydroxypropylcellulose) (HPC)",99 % of control
same,T/C,"dose: 25.0 mg/kg/injection, schedule: Q01DX005 (ip), vehicle: Klucel (hydroxypropylcellulose) (HPC)",97 % of control
CCC1(C)C(=O)C(C)(CC)C1=O (stereo unspecified),T/C,[5],105 % of control
same,T/C,[6],107 % of control
same,T/C,[7],116 % of control
CC1(C)CC(NC(=O)CCl)CC(C)(C)N1O,T/C,[1],93 % of control
same,T/C,[2],91 % of control
same,T/C,[3],102 % of control
CC(C)(C)CC(C)(C)c1ccc(O)cc1,T/C,"dose: 66.0 mg/kg/injection, schedule: Q01DX009 (ip), vehicle: saline",100 % of control
same,T/C,[2],100 % of control
same,T/C,"dose: 150.0 mg/kg/injection, schedule: Q01DX009 (ip), vehicle: saline",122 % of control
same,T/C,"dose: 200.0 mg/kg/injection, schedule: Q01DX009 (ip), vehicle: saline sonified",118 % of control
C[Si]1(C)N(c2ccccc2)[Si](C)(c2ccccc2)N1c1ccccc1,T/C,[13],94 % of control
same,T/C,[14],111 % of control
same,T/C,"dose: 200.0 mg/kg/injection, schedule: Q01DX005 (ip), vehicle: Klucel (hydroxypropylcellulose) (HPC)",111 % of control
CCC(C)Sc1nc2ccc(NC(=O)/C=C/C(=O)O)cc2s1 (stereo unspecified),T/C,"dose: 100.0 mg/kg/injection, schedule: Q04DX003 (ip), vehicle: Klucel (hydroxypropylcellulose) (HPC)",95 % of control
same,T/C,"dose: 200.0 mg/kg/injection, schedule: Q04DX003 (ip), vehicle: Klucel (hydroxypropylcellulose) (HPC)",100 % of control
C/C(=N\O)c1cc(Br)cc([N+](=O)[O-])c1O,T/C,[13],100 % of control
same,T/C,[14],94 % of control
CCN(CC)CCCCCCNc1cc(OC)cc2cccnc12,T/C,"dose: 12.5 mg/kg/injection, schedule: Q01DX009 (ip), vehicle: saline",86 % of control
same,T/C,"dose: 25.0 mg/kg/injection, schedule: Q01DX009 (ip), vehicle: saline",96 % of control
same,T/C,[1],90 % of control
NC(=O)c1ccc2nccn2c1,T/C,"dose: 50.0 mg/kg/injection, schedule: Q04DX003 (ip), vehicle: saline",101 % of control
same,T/C,[11],115 % of control
same,T/C,[12],119 % of control
C=C1C(=O)C23C(O)CC4C(C)(C)[C@@H](OC(C)=O)CCC4(C)[C@]2(O)CCC1[C@@H]3O (stereo partly specified),T/C,"dose: 5.0 mg/kg/injection, schedule: Q01DX005 (ip), vehicle: Klucel (hydroxypropylcellulose) (HPC)",106 % of control
same,T/C,"dose: 10.0 mg/kg/injection, schedule: Q01DX005 (ip), vehicle: Klucel (hydroxypropylcellulose) (HPC)",110 % of control
same,T/C,"dose: 20.0 mg/kg/injection, schedule: Q01DX005 (ip), vehicle: Klucel (hydroxypropylcellulose) (HPC)",112 % of control
same,T/C,"dose: 40.0 mg/kg/injection, schedule: Q01DX005 (ip), vehicle: Klucel (hydroxypropylcellulose) (HPC)",114 % of control
CC(=O)NC(C=O)OCC=O (stereo unspecified),T/C,"dose: 44.0 mg/kg/injection, schedule: Q01DX005 (ip), vehicle: water",120 % of control
same,T/C,"dose: 66.0 mg/kg/injection, schedule: Q01DX005 (ip), vehicle: water",121 % of control
same,T/C,"dose: 150.0 mg/kg/injection, schedule: Q01DX005 (ip), vehicle: water",110 % of control
CCOC(=O)c1ccc(NN=NCCF)cc1,T/C,"dose: 6.25 mg/kg/injection, schedule: Q01DX005 (ip), vehicle: distilled water + Tween-80",160 % of control
same,T/C,"dose: 12.5 mg/kg/injection, schedule: Q01DX005 (ip), vehicle: distilled water + Tween-80",252 % of control
same,T/C,"dose: 25.0 mg/kg/injection, schedule: Q01DX005 (ip), vehicle: distilled water + Tween-80",256 % of control and 275 % of control
c1cc2[nH]c3ccncc3c2cn1,T/C,"dose: 25.0 mg/kg/injection, schedule: Q01DX009 (ip), vehicle: saline with Tween-80",102 % of control
same,T/C,"dose: 50.0 mg/kg/injection, schedule: Q01DX009 (ip), vehicle: saline with Tween-80",105 % of control
CC(C)(C)CC(C)(C)c1ccc(O)c(O)c1,T/C,"dose: 25.0 mg/kg/injection, schedule: Q01DX005 (ip), vehicle: saline",100 % of control
same,T/C,"dose: 50.0 mg/kg/injection, schedule: Q01DX005 (ip), vehicle: saline",101 % of control
same,T/C,"dose: 100.0 mg/kg/injection, schedule: Q01DX005 (ip), vehicle: saline",106 % of control
same,T/C,[2],106 % of control and 94 % of control
same,T/C,"dose: 200.0 mg/kg/injection, schedule: Q01DX005 (ip), vehicle: saline",110 % of control
same,T/C,[4],94 % of control
CN1CC(=O)NC2C(=CN(Cc3ccccc3)c3ccccc32)C1=O (stereo unspecified),T/C,[5],100 % of control
same,T/C,[6],90 % of control
same,T/C,[7],90 % of control
O=C(CCN1CCC23c4c5ccc(O)c4OC2C(O)C=CC3C1C5)c1ccccc1 (stereo unspecified),T/C,[13],88 % of control
same,T/C,[14],99 % of control
CCn1c(=O)c2[nH]c(Cl)nc2n(CC(C)Cl)c1=O (stereo unspecified),T/C,"dose: 12.5 mg/kg/injection, schedule: Q01DX009 (ip), vehicle: Klucel (hydroxypropylcellulose) (HPC)",94 % of control
same,T/C,"dose: 25.0 mg/kg/injection, schedule: Q01DX009 (ip), vehicle: Klucel (hydroxypropylcellulose) (HPC)",101 % of control
same,T/C,"dose: 50.0 mg/kg/injection, schedule: Q01DX009 (ip), vehicle: Klucel (hydroxypropylcellulose) (HPC)",100 % of control and 103 % of control
same,T/C,"dose: 100.0 mg/kg/injection, schedule: Q01DX009 (ip), vehicle: Klucel (hydroxypropylcellulose) (HPC)",104 % of control
O=C1C(Cl)=C(N2CCN(C3=C(Cl)C(=O)c4ccccc4C3=O)CC2)C(=O)c2ccccc21,T/C,"dose: 1.5 mg/kg/injection, schedule: Q01DX009 (ip), vehicle: saline",100 % of control and 104 % of control
same,T/C,"dose: 3.0 mg/kg/injection, schedule: Q01DX009 (ip), vehicle: saline",100 % of control and 107 % of control
same,T/C,"dose: 6.0 mg/kg/injection, schedule: Q01DX009 (ip), vehicle: saline",104 % of control and 97 % of control
